In patent US20090069320A1, “Substituted 4-Amino-Quinazoline Compounds with Metabotropic Glutamate Receptor Regulating Activity and Uses Thereof” (Gruenenthal GmbH, priority 2006, published 2009):

Biological target: T1, mGluR5 receptor (Sus scrofa, UniProt I3LUI7)
T1 construct: 450 μg of protein from brain homogenate with 5 nM ^3[H]-MPEP; from tissue; host or cells: pig brain halves without medulla, cerebellum and pons
Experiment: [3H]-MPEP mGluR5 receptor binding assay (pig brain homogenate)
Details: 10 μM compound, 5 nM [3H]-MPEP; for inhibition at 10 µM: read-out: % Inhibition of mGluR5 Receptor (pig) [^3H]-MPEP Bond at 10 μM
Outline: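 Compounds at 10 μM competed with 5 nM [3H]-MPEP for binding to pig brain membranes (450 μg protein) for 60 min at room temperature in pH 8.0 Hepes buffer. Bound radioactivity was collected on glass-fibre filters and read by β-counting, with 10 μM unlabelled MPEP giving non-specific binding.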

T1 sequence (I3LUI7 19-1212): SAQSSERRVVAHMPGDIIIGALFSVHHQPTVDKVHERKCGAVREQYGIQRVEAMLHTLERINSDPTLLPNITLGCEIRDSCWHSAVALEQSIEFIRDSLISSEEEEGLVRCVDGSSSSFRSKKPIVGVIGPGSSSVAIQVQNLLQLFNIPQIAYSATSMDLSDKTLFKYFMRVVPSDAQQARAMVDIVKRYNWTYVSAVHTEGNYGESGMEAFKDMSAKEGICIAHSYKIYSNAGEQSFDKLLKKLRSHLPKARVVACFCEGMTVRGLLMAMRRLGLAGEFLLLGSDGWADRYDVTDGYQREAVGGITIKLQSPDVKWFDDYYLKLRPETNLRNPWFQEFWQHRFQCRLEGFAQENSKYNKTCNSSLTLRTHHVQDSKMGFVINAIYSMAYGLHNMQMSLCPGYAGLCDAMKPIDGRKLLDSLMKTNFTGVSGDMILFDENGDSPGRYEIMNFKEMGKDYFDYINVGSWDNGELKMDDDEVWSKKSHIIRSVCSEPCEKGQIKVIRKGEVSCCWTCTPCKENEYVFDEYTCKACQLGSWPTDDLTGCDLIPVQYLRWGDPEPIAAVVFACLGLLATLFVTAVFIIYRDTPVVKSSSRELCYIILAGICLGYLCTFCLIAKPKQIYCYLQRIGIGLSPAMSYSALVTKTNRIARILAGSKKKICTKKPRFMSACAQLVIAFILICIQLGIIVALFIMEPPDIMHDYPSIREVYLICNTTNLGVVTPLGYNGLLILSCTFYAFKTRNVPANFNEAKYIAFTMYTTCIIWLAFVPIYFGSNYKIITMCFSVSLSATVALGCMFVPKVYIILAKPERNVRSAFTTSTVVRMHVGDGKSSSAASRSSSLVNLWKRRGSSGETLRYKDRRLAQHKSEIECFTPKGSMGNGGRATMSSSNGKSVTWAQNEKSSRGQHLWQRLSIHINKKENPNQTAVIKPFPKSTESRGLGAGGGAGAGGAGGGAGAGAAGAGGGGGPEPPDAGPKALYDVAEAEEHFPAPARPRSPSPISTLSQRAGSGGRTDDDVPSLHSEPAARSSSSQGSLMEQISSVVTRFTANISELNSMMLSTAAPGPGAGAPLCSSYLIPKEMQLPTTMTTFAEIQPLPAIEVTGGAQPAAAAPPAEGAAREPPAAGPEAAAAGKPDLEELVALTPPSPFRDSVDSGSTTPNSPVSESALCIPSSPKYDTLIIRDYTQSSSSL

Row | Structure (SMILES) | inhibition at 10 µM | % Inhibition of mGluR5 Receptor (pig) [^3H]-MPEP Bond at 10 μM
1 | CC(C)S(=O)(=O)N(Cc1cccc(-c2cc(F)c3ncnc(NC4CC4)c3c2)c1)C1CC1 [Example 824, N-cyclopropyl-N-(3-(4-(cyclopropylamino)-8-fluoroquinazolin-6-yl)benzyl)propane-2-sulfonamide] | 71% | –
2 | Cc1nc(C(=O)N(Cc2cc(-c3ccc4ncnc(NC(C)(C)C)c4c3)ccc2F)C2CC2)cs1 [Example 825, N-(5-(4-(tert-butylamino)quinazolin-6-yl)-2-fluorobenzyl)-N-cyclopropyl-2-methylthiazole-4-carboxamide] | 97% | –
3 | CC(C)(C)Nc1ncnc2ccc(-c3ccc(F)c(CN(C(=O)c4ccccn4)C4CC4)c3)cc12 [Example 826, N-(5-(4-(tert-butylamino)quinazolin-6-yl)-2-fluorobenzyl)-N-cyclopropyl picolinamide] | – | 98%
4 | CC(C)(C)Nc1ncnc2ccc(-c3ccc(F)c(CN(C4CC4)S(C)(=O)=O)c3)cc12 [Example 827, N-(5-(4-(tert-butylamino)quinazolin-6-yl)-2-fluorobenzyl)-N-cyclopropyl methane sulfonamide] | – | 87%
5 | CC(C)(C)C(=O)N(Cc1cc(-c2ccc3ncnc(NC4CC4)c3c2)ccn1)C1CC1 [Example 828, N-cyclopropyl-N-((4-(4-(cyclopropylamino)quinazolin-6-yl)pyridin-2-yl)methyl)pivalamide] | 74% | –
6 | CCCCC(=O)N(Cc1cc(-c2ccc3ncnc(NC4CC4)c3c2)ccn1)C1CC1 [Example 829, N-cyclopropyl-N-((4-(4-(cyclopropylamino)quinazolin-6-yl)pyridin-2-yl)methyl)pentanamide] | 45% | –
7 | Cc1nc(C(=O)N(Cc2cccc(-c3cc(F)c4ncnc(NC5CC5)c4c3)c2)C2CC2)cs1 [Example 830, N-cyclopropyl-N-(3-(4-(cyclopropylamino)-8-fluoroquinazolin-6-yl)benzyl)-2-methylthiazole-4-carboxamide] | 90% | –
8 | Cc1cc(C(=O)N(Cc2cc(-c3ccc4ncnc(NC(C)(C)C)c4c3)ccc2F)C2CC2)n(C)n1 [Example 831, N-(5-(4-(tert-butylamino)quinazolin-6-yl)-2-fluorobenzyl)-N-cyclopropyl-1,3-dimethyl-1H-pyrazole-5-carboxamide] | 84% | –
9 | CC(C)(C)Nc1ncnc2ccc(-c3ccc(F)c(CN(C(=O)c4ccncc4)C4CC4)c3)cc12 [Example 832, N-(5-(4-(tert-butylamino)quinazolin-6-yl)-2-fluorobenzyl)-N-cyclopropyl isonicotinamide] | – | 96%
10 | CC(C)(C)Nc1ncnc2ccc(-c3ccc(F)c(CN(C4CC4)S(=O)(=O)Cc4ccccc4)c3)cc12 [Example 833, N-(5-(4-(tert-butylamino)quinazolin-6-yl)-2-fluorobenzyl)-N-cyclopropyl-1-phenyl methane sulfonamide] | – | 43%
11 | CC(C)(C)Nc1ncnc2ccc(-c3ccc(F)c(CN(C(=O)c4ccno4)C4CC4)c3)cc12 [Example 834, N-(5-(4-(tert-butylamino)quinazolin-6-yl)-2-fluorobenzyl)-N-cyclopropyl isoxazole-5-carboxamide] | – | 42%
12 | O=C(C1CCCCC1)N(Cc1cc(-c2ccc3ncnc(NC4CC4)c3c2)ccn1)C1CC1 [Example 835, N-cyclopropyl-N-((4-(4-(cyclopropylamino)quinazolin-6-yl)pyridin-2-yl)methyl)cyclohexane carboxamide] | 58% | –
13 | CC(C)(C)Nc1ncnc2ccc(-c3ccc(F)c(CN(C(=O)c4ccccc4)C4CC4)c3)cc12 [Example 837, N-(5-(4-(tert-butylamino)quinazolin-6-yl)-2-fluorobenzyl)-N-cyclopropyl benzamide] | – | 86%
14 | CC(C)(C)Nc1ncnc2ccc(-c3ccc(F)c(CN(C(=O)c4cccnc4)C4CC4)c3)cc12 [Example 838, N-(5-(4-(tert-butylamino)quinazolin-6-yl)-2-fluorobenzyl)-N-cyclopropyl nicotinamide] | – | 92%
15 | CC(C)(C)Nc1ncnc2ccc(-c3ccc(F)c(CN(C(=O)c4c(F)c(F)c(F)c(F)c4F)C4CC4)c3)cc12 [Example 840, N-(5-(4-(tert-butylamino)quinazolin-6-yl)-2-fluorobenzyl)-N-cyclopropyl-2,3,4,5,6-pentafluorobenzamide] | 74% | –
16 | O=C(Cc1ccccc1)N(Cc1cc(-c2ccc3ncnc(NC4CC4)c3c2)ccn1)C1CC1 [Example 841, N-cyclopropyl-N-((4-(4-(cyclopropylamino)quinazolin-6-yl)pyridin-2-yl)methyl)-2-phenylacetamide] | 36% | –
17 | COc1ccc(C(=O)N(Cc2cc(-c3ccc4ncnc(NC(C)(C)C)c4c3)ccc2F)C2CC2)cc1OC [Example 843, N-(5-(4-(tert-butylamino)quinazolin-6-yl)-2-fluorobenzyl)-N-cyclopropyl-3,4-dimethoxybenzamide] | 71% | –
18 | CC(=O)N(Cc1cc(-c2ccc3ncnc(NC(C)(C)C)c3c2)ccc1F)C1CC1 [Example 844, N-(5-(4-(tert-butylamino)quinazolin-6-yl)-2-fluorobenzyl)-N-cyclopropyl acetamide] | – | 94%
19 | COCC(=O)N(Cc1cc(-c2ccc3ncnc(NC(C)(C)C)c3c2)ccc1F)C1CC1 [Example 846, N-(5-(4-(tert-butylamino)quinazolin-6-yl)-2-fluorobenzyl)-N-cyclopropyl-2-methoxyacetamide] | 82% | –
20 | O=C(CCc1ccccc1)N(Cc1cc(-c2ccc3ncnc(NC4CC4)c3c2)ccn1)C1CC1 [Example 847, N-cyclopropyl-N-((4-(4-(cyclopropylamino)quinazolin-6-yl)pyridin-2-yl)methyl)-3-phenylpropanamide] | 43% | –
21 | O=S(=O)(c1c(F)c(F)c(F)c(F)c1F)N(Cc1cc(-c2ccc3ncnc(NC4CC4)c3c2)ccn1)C1CC1 [Example 848, N-cyclopropyl-N-((4-(4-(cyclopropylamino)quinazolin-6-yl)pyridin-2-yl)methyl)-2,3,4,5,6-pentafluorobenzole sulfonamide] | – | 53%
22 | CC(C)(C)Nc1ncnc2ccc(-c3ccc(F)c(CN(C(=O)c4cccc(F)c4)C4CC4)c3)cc12 [Example 849, N-(5-(4-(tert-butylamino)quinazolin-6-yl)-2-fluorobenzyl)-N-cyclopropyl-3-fluorobenzamide] | 86% | –
23 | CC(C)(C)Nc1ncnc2ccc(-c3ccc(F)c(CN(C(=O)C(C)(C)C)C4CC4)c3)cc12 [Example 850, N-(5-(4-(tert-butylamino)quinazolin-6-yl)-2-fluorobenzyl)-N-cyclopropyl pivalamide] | – | 83%
24 | CNc1ncnc2ccc(-c3cccc(CN(c4ccccc4F)S(=O)(=O)c4ccccc4)c3)cc12 [Example 852, N-(2-fluorophenyl)-N-(3-(4-(methylamino)quinazolin-6-yl)benzyl)benzole sulfonamide] | – | 49%
25 | CS(=O)(=O)N(Cc1cc(-c2ccc3ncnc(NC4CC4)c3c2)ccn1)C1CC1 [Example 853, N-cyclopropyl-N-((4-(4-(cyclopropylamino)quinazolin-6-yl)pyridin-2-yl)methyl)methane sulfonamide] | 67% | –
